{"source": "patent US11225642B2", "about": "“Method for producing renal progenitor cells” (KYOTO UNIVERSITY, priority 2013, dated 2022)", "molecules": {"B1": {"name": "TGFβ2: TGFβ signaling activator protein (Peprotech) (protein, UniProt P61812 303-414, looked up)", "Transforming growth factor …": "ALDAAYCFRNVQDNCCLRPLYIDFKRDLGWKWIHEPKGYNANFCAGACPYLWSSDTQHSRVLSLYNTINPEASASPCCVSQDLEPLTILYYIGKTPKIEQLSNMIVKSCKCS"}, "B2": {"name": "TGFβ3: TGFβ signaling activator protein (R&D, Peprotech) (protein, UniProt P10600 301-412, looked up)", "Transforming growth factor …": "ALDTNYCFRNLEENCCVRPLYIDFRQDLGWKWVHEPKGYYANFCSGPCPYLRSADTTHSTVLGLYNTLNPEASASPCCVPQDLEPLTILYYVGRTPKVEQLSNMVVKSCKCS"}, "B3": {"name": "Noggin: BMP inhibitor protein (Peprotech) (protein, UniProt Q13253 28-232, looked up)", "Noggin": "QHYLHIRPAPSDNLPLVDLIEHPDPIFDPKEKDLNETLLRSLLGGHYDPGFMATSPPEDRPGGGGGAAGGAEDLAELDQLLRQRPSGAMPSEIKGLEFSEGLAQGKKQRLSKKLRRKLQMWLWSQTFCPVLYAWNDLGSRFWPRYVKVGSCFSKRSCSVPEGMVCKPSKSVHLTVLRWRCQRRGGQRCGWIPIQYPIISECKCSC"}}, "key": {"[1]": {"tested_on": "OSR1-GFP & SIX2-tdTomato reporter human iPS cell line", "experiment": "SIX2-positive cell induction method 1, SIX2-tdTomato-positive cell rate by flow cytometer", "type": "cell-based", "conditions": "for SIX2-positive cell rate: induction method 1 stage 3, Dorsomorphin replaced with 0.5 μM LDN193189 and TGFβ1 with 10 ng/ml TGFβ2 or TGFβ3", "protocol": "The OSR1-GFP & SIX2-tdTomato reporter human iPS cell line obtained by the method in Example 1 was cultured at 37° C. in a 2-5% CO2 atmosphere to become confluent on 10-cm dishes containing a primate ES/iPS cell medium (ReproCELL) supplemented with 5 ng/ml bFGF (Wako) with the use of SNL cells (McMahon, A. P. and Bradley, A. (1990) Cell 62; 1073-1085) (the cells being treated with 15.5 μg/ml mitomycin (Kyowa Hakko Kirin Co., Ltd.) for 2 to 3 hours and seeded at a density of 3×10^5 cells/10-cm dish) as feeder cells. A CTK solution (2.5% Trypsin (Invitrogen), 1 mg/ml Collagenase IV (Invitrogen), 0.1 M CaCl2, 10 mL KnockOut SR (Invitrogen), and 29.5 mL H2O) was added to dissociate the cells. After removal of the feeder cells, the dissociated cells were suspended in a DMEM/F12 medium containing 1 μM CHIR99021 (Stemgent, 04-0004), 100 ng/ml Activin A (R&D Systems, 338-AC), 1% GlutaMAX (100×) (Invitrogen, 35050-061), 2% FBS (Hyclone), and 0.5% PenStrep (Invitrogen, 10565). Then, the cell suspensions were transferred to a low cell binding plate (LOW CELL BIND 6 WELL DISH (Nunc, 145383)) such that each well contained one-third to one-sixth of the cell suspension obtained from the 10-cm dish, followed by suspension culture at 37° C. in a 5% CO2 atmosphere for 2 days.\nThe cell mass obtained at stage 1 was transferred to a 24-well or 6-well dish coated with Matrigel (BD Matrigel Matrix Growth Factor Reduced (BD Biosciences, 356230) (the dish being coated with 0.2 mg/ml Matrigel in DMEM and treated at 37° C. for 30 minutes or at 4° C. overnight) or a 24-well or 6-well dish coated with Synthemax (Corning Synthemax II-SC Substrate (Corning, 3535XX1)) (the dish being coated with Synthemax diluted 40-fold with sterile water and treated at room temperature for 2 hours). The medium was exchanged with a DMEM/F12 medium containing 1 μM CHIR99021, 100 ng/ml BMP7 (Recombinant human BMP7 (R&D Systems, 3534-BP)), 0.1% 2-mercaptoethanol (1000×) (Invitrogen, 21985), 1% GlutaMAX (100×), 10% KnockOut SR (Invitrogen), 0.1 mM MEM NEAA (Invitrogen, 11140), and 0.5% PenStrep, followed by adhesion culture at 37° C. in a 5% CO2 atmosphere for 3 to 6 days. In the case of culture for 3 days or more, the medium was exchanged every 3 days with a medium having the same conditions.\nThe medium was removed from the cells obtained at stage 2. The cells were washed with PBS and then the medium was exchanged with a DMEM/F12 medium containing 5 ng/ml TGFβ1 (Peprotech, 100-21C), 0.5 μM Dorsomorphin (AMPK Inhibitor, Compound C (Merck, 171260)), 0.1% 2-mercaptoethanol (1000×), 1% GlutaMAX (100×), 10% KnockOut SR, 0.1 mM MEM NEAA, and 0.5% PenStrep, followed by suspension culture at 37° C. in a 5% CO2 atmosphere for 15 to 22 days. In this case, the medium was exchanged every 3 days with a medium having the same conditions.\nAt stage 3 of SIX2-positive cell induction method 1, Dorsomorphin was replaced with 100 ng/ml Noggin (Peprotech), 0.5 μM LDN193189 (Axon MedChem, 1509), or 0.5 μM DMH1 (Tocris, 4126) for differentiation induction in the aforementioned manner.\nAt stage 3 of SIX2-positive cell induction method 1, TGFβ1 was exchanged with 50 μM IDE1 (Tocris) or 50 μM IDE2 (Tocris) for differentiation induction in the aforementioned manner.\nAt stage 3 of SIX2-positive cell induction method 1, Dorsomorphin was replaced with 0.5 μM LDN193189, while TGFβ1 with 10 ng/ml TGFβ2 (Peprotech) or 10 ng/ml TGFβ3 (R&D), for differentiation induction in the aforementioned manner. As a result, the SIX2-positive cell rates were 8.6% and 9.3%, respectively (FIGS. 2G and 2H)."}, "[2]": {"tested_on": "OSR1-GFP & SIX2-tdTomato reporter human iPS cell line (4A6C3-10)", "experiment": "SIX2-positive cell induction method 4, OSR1+SIX2+ cell rate by flow cytometer", "type": "cell-based", "protocol": "4A6C3-10 was cultured at 37° C. in a 2% to 5% CO2 atmosphere to become 70% to 80% confluent on 10-cm dishes containing a primate ES medium (ReproCELL) supplemented with 500 U/ml penicillin/streptomycin (Invitrogen) and 5 ng/ml recombinant human basic fibroblast growth factor (bFGF, Wako) with the use of ICR-mouse-embryo (fetus 12.5 days old)-derived mouse embryonic fibroblasts (MEF) or SNL feeder cells (McMahon, A. P. and Bradley, A. (1990) Cell 62; 1073-1085) (these cells being previously treated with 15.5 μg/ml mitomycin (Kyowa Hakko Kirin Co., Ltd.) for 2 to 3 hours and seeded at a density of 2×10^5 cells/6-cm dish) as feeder cells. The 10-cm plates containing the cells were rinsed with PBS and treated with a CTK solution (PBS containing 0.25% Trypsin (Invitrogen), 0.1% Collagenase IV (Invitrogen), 20% KnockOut SR (KSR, Invitrogen), and 1 mM CaCl2) at 37° C. for 4 minutes. The CTK solution was removed by rinsing with PBS. Then, the medium was exchanged with DMEM/F12+Glutamax (Invitrogen) containing 0.1 mM MEM NEAA (Invitrogen), 1000 U/ml penicillin/streptomycin, 0.55 mM 2-mercaptoethanol (Invitrogen), and 20% KSR. Subsequently, the cells were scraped using a cell scraper and seeded on 6-cm plates coated with 0.2% gelatin to remove feeder cells. One hour later, the cells were washed with DMEM/F12+Glutamax [stage-1 medium] containing 500 U/ml penicillin/streptomycin and 2% FBS (HyClone), transferred to ultra-low attachment dishes (Corning 3471) having a stage-1 medium containing 100 ng/ml recombinant human/mouse/rat Activin A (R&D Systems) and 1 μM CHIR99021, and cultured at 37° C. in a 5% CO2 atmosphere for 2 days.\nIn order to differentiate into the intermediate mesoderm, the cell mass (embryoid body (EB)) obtained at stage 1 was transferred to a 24-well plate coated with Synthemax II (Corning), the medium was exchanged with DMEM/F12+Glutamax containing 0.1 mM MEM NEAA, 500 U/ml penicillin/streptomycin, 0.55 mM 2-mercaptoethanol, 10% KSR, 100 ng/ml BMP7 (recombinant human BMP7, R&D Systems), and 1 μM CHIR99021, and the cells were cultured at 37° C. in a 5% CO2 atmosphere for 3 days.\nAfter stage 2, the medium was exchanged with DMEM/F12+Glutamax containing 0.1 mM MEM NEAA, 500 U/ml penicillin/streptomycin, 0.55 mM 2-mercaptoethanol, 10% KSR, 1 μM TTNPB (Sigma T3757), and 5 ng/ml TGFβ1 (Peprotech), followed by culturing at 37° C. in a 5% CO2 atmosphere for 5 days. The medium was exchanged with a medium having the same conditions two days after the start of culture (i.e., day 8 from the start of stage 1 (day 1)).\nAfter stage 3, the medium was exchanged with DMEM/F12+Glutamax containing 0.1 mM MEM NEAA, 500 U/ml penicillin/streptomycin, 0.55 mM 2-mercaptoethanol, 10% KSR, 5 ng/ml TGFβ1, and 0.5 μM DMH1 (Tocris), followed by culturing at 37° C. in a 5% CO2 atmosphere for 17 days (i.e., culturing for 28 days in total from the start of stage 1 (day 1); FIG. 3A). In this case, the medium was exchanged every 3 days with a medium having the same conditions. […] In addition, the OSR1^+SIX2^+ cell rate reached the maximum level on day 25 of culture and then it was confirmed to be maintained until day 28 of culture (FIG. 3D).\nInduction of OSR1^+SIX2^+ cells from the 4A6C3-10 iPS cell line was examined using different combinations of TGFβ signaling activators and BMP inhibitors. Specifically, induction of OSR1^+SIX2^+ cells from 4A6C3-10 was examined under conditions 1) to 10) described below. […]"}, "[3]": {"conditions": "induction method 1 stage 3, Dorsomorphin replaced with 100 ng/ml Noggin, 0.5 μM LDN193189 or 0.5 μM DMH1, with TGFβ1"}, "[4]": {"conditions": "induction method 1 stage 3, TGFβ1 exchanged with 50 μM IDE1 or 50 μM IDE2, with Dorsomorphin"}}}
{"molecule": "c1ccc2c(-c3cnn4cc(-c5ccc(N6CCNCC6)cc5)cnc34)ccnc2c1", "note": "[LDN193189, 4-(6-(4-(piperazin-1-yl)phenyl)pyrazolo[1,5-a]pyrimidin-3-yl)quinoline]", "values": [{"measurement": "SIX2-tdTomato-positive cell rate", "setting": "[1]; [3]", "result": 20.4, "unit": "%"}]}
{"molecule": "O=C(O)CCCCCC(=O)NN=C1CCCC1", "note": "[IDE2, 7-(2-cyclopentylidenehydrazinyl)-7-oxoheptanoic acid]", "values": [{"measurement": "SIX2-tdTomato-positive cell rate", "setting": "[1]; [4]", "result": 39.4, "unit": "%"}]}
{"molecule": "NC(=O)c1ccc(-c2nc(-c3ccc4c(c3)OCO4)c(-c3ccccn3)[nH]2)cc1", "note": "[SB431542]", "values": [{"measurement": "differentiation into OSR1+SIX2+ cells", "setting": "[2]; stage 4 medium with 10 μM SB431542 together with 5 ng/ml TGFβ1 and 0.5 μM DMH1 (condition 11)", "result": "inhibited"}]}
{"molecule": "O=C(O)CCCCCC(=O)N/N=C\\c1ccccc1C(=O)O", "note": "[IDE1, (Z)-2-((2-(6-carboxyhexanoyl)hydrazono)methyl)benzoic acid]", "values": [{"measurement": "SIX2-tdTomato-positive cell rate", "setting": "[1]; [4]", "result": 8.4, "unit": "%"}]}
{"molecule": "CC(C)Oc1ccc(-c2cnc3c(-c4ccnc5ccccc45)cnn3c2)cc1", "note": "[DMH1, 4-[6-[4-(1-Methylethoxy)phenyl]pyrazolo[1,5-a]pyrimidin-3-yl]-quinoline]", "values": [{"measurement": "induction of OSR1+SIX2+ cells", "setting": "[2]; Example 8, comparison of combinations of TGFβ signaling activators and BMP inhibitors at stage 4 (FIG. 4)", "result": "effective"}, {"measurement": "OSR1-positive and SIX2-positive (OSR1+SIX2+) cell rate", "setting": "[2]; induction method 4, stage 4 medium with 5 ng/ml TGFβ1 and 0.5 μM DMH1, day 28 of culture", "result": 32.8, "unit": "%"}, {"measurement": "SIX2-tdTomato-positive cell rate", "setting": "[1]; [3]", "result": 15.4, "unit": "%"}]}
{"molecule": "B1", "values": [{"measurement": "SIX2-positive cell rate", "setting": "[1]", "result": 8.6, "unit": "%"}]}
{"molecule": "B2", "values": [{"measurement": "SIX2-positive cell rate", "setting": "[1]", "result": 9.3, "unit": "%"}]}
{"molecule": "B3", "values": [{"measurement": "SIX2-tdTomato-positive cell rate", "setting": "[1]; [3]", "result": 7.5, "unit": "%"}]}
